Experiment [1] deals with human recombinant D2 receptor (Homo sapiens (Human), UniProt P14416). Description: D2 receptor antagonism activity test (inhibition of dopamine-induced decrease of cAMP production, LANCE cAMP 384 Kit). The note with it: read-out: D2 receptor antagonism (IC50, mol/L), HEK293 cells expressing human recombinant D2 receptor, 0.1 nM-10000 nM.
For experiment [2], the target named is human recombinant 5-HT1A receptor (Homo sapiens (Human), UniProt P08908). Description: 5-HT1A receptor agonism activity test (inhibition of cAMP production, LANCE cAMP 384 Kit). Type of experiment: cell-based. The following applies: HEK293 cells expressing human recombinant 5-HT1A receptor; test concentration 0.1 nM-10000 nM; read-out: 5-HT1A receptor agonism (EC50, mol/L). The text has this: Pharmacological Test 1) 5-HT1A Receptor Agonism Activity Test
In general terms: cAMP levels reflect the balance of adenylyl cyclase and phosphodiesterase activity.

Experiment [3] concerns PCP-induced hyperactivity in mice. Description: In vivo efficacy test (PCP-induced high locomotor activity in mice). The following applies: male ICR mice, oral administration 45 minutes before PCP 7 mg/kg i.p.; dose significantly reducing PCP-induced hyperactivity vs model group. As for the experimental part:
5) In Vivo Efficacy Test (PCP-Induced High Locomotor Activity in Mice)
PCP solution was prepared in a suitable concentration for 7 mg/kg dosage with saline. […] Male ICR mice (18-22 g) were used as test animals. All the test mice were randomly divided into vehicle control group, model control group, positive control group, and treatment group(8 mice per group). Mice of each group were orally administered test compounds or vehicle. After 45 minutes PCP solution was administered (7 mg/kg) through intraperitoneal injection. The mice track after drug or saline administration was recorded and analyzed by the spontaneous, open-field video analysis system. […] The mice track was recorded and analyzed by the spontaneous, open-field video analysis system. The total distance in each group was calculate and expressed as mean+SD and statistical evaluation was performed by one way ANOVA.

In experiment [4] the target is human recombinant 5-HT2A receptor (Homo sapiens (Human), UniProt P28223). Description: 5-HT2A receptor antagonism activity test (FLIPR Calcium 5 Assay Kit). The note with it: read-out: 5-HT2A receptor antagonism (IC50, mol/L); CHO-K1 cells expressing human recombinant 5-HT2A receptor; α-methyl-5-hydroxytryptamine 300 nM; 0.1 nM-10000 nM.
Chain of human recombinant 5-HT2A receptor (P28223 whole entry): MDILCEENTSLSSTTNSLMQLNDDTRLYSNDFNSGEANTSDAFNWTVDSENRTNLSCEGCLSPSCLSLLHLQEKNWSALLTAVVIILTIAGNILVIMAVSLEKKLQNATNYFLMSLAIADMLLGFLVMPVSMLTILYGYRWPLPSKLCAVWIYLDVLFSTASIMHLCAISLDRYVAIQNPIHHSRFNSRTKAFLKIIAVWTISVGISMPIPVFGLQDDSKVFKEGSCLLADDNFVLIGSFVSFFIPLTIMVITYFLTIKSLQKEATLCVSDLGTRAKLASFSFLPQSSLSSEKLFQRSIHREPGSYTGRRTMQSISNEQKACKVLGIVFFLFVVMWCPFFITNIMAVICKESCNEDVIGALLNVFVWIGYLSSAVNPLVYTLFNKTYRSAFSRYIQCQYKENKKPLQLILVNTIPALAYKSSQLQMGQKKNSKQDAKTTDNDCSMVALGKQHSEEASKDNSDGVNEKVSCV

Chain of human recombinant D2 receptor (P14416 whole entry): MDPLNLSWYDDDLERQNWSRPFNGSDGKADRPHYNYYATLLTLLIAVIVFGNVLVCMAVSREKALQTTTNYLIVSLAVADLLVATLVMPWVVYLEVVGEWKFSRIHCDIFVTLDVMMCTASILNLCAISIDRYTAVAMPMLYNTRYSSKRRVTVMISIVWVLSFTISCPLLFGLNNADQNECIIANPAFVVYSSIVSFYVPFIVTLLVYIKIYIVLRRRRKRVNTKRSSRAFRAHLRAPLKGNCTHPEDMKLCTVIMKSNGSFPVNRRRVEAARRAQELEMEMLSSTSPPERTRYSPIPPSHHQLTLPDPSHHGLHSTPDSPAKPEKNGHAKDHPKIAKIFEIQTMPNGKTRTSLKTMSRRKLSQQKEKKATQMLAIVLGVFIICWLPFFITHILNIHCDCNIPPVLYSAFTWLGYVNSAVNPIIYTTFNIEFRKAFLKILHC
Chain of human recombinant 5-HT1A receptor (P08908 whole entry): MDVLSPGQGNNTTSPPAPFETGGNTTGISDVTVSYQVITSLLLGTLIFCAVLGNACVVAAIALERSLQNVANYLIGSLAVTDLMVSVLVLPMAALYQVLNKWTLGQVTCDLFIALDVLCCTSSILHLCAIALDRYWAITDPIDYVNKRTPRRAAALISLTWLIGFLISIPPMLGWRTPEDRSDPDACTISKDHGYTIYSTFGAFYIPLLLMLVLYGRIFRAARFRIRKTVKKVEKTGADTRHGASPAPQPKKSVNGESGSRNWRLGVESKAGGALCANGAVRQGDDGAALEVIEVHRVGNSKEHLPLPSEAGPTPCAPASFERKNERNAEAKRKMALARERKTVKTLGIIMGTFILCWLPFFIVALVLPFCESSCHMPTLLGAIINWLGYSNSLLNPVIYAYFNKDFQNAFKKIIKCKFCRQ

On to `COc1cc2c(N3CCN(CCc4ccc5c(c4)CCC(=O)N5)CC3)cccc2s1` [Compound of example 89, 6-(2-(4-(2-methoxybenzo[b]thiophen-4-yl)piperazin-1-yl)ethyl)-3,4-dihydroquinolin-2(1H)-one], for which the values for the IC50 in experiment [1] and in experiment [4] were 0.00806 µM and 1.05 µM, respectively. Moreover, the EC50 in experiment [2] was determined as 0.00129 µM. Also, in experiment [3], the “Effective dose” value amounted to 1 mg/kg.

Consider `O=c1ccc2ccc(CCN3CCN(c4cc(F)cc5sccc45)CC3)cc2[nH]1` [Compound of example 102, 7-(2-(4-(6-fluorobenzo[b]thiophen-4-yl)piperazin-1-yl)ethyl)quinolin-2(1H)-one], for which the IC50 in experiment [1] was 0.106 µM; in experiment [4], 1.9 µM. Also, the EC50 in experiment [2] was 0.00329 µM. The “Effective dose” value in experiment [3] turned out to be 3 mg/kg.

For the compound `O=C1Cc2cc(CCCCN3CCN(c4cccc5sccc45)CC3)ccc2N1` [Compound of example 112, 5-(4-(4-(benzo[b]thiophen-4-yl)piperazin-1-yl)butyl)indolin-2-one], the results for the IC50 in experiment [1] and in experiment [4] were 0.0281 µM and 0.257 µM, respectively. Further, in experiment [2], the EC50 worked out at 0.0346 µM. In experiment [3], the “Effective dose” value worked out at 1 mg/kg.

With `O=C1COc2ccc(CCCCN3CCN(c4cccc5sccc45)CC3)cc2N1` [Compound of example 137, 6-(4-(4-(benzo[b]thiophen-4-yl)piperazin-1-yl)butyl)-2H-benzo[b][1,4]oxazin-3(4H)-one], the IC50 in experiment [1] stood at 0.0302 µM; in experiment [4] it was 0.711 µM. In addition, in experiment [2], the EC50 is 0.00181 µM. In addition, in experiment [3], the “Effective dose” value is recorded as 3 mg/kg.
